Read-outs that look alike come from different tables or passages of the source.

Assay [1] concerns the target T1, HIF-1α (Homo sapiens, UniProt Q16665).
T1 construct: endogenous in cells; host or cells: ARPE-19 (ATCC CRL-2302)
The assay can be described thus: Analysis of HIF-1α protein expression (Western blot) in ARPE-19 cells under mixed hypoxic condition. As to conditions: concentration range at which HIF-1α expression is reduced by 50% vs untreated control. The assay is classed as cell-based. A digest of the protocol: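 ARPE-19 cells were pretreated 16 h or 2 h with compound (0.1 nM–10 µM, serum-free DMEM/F12), then held 1 h or 24 h in mixed hypoxia (1% O2 plus CoCl2). HIF-1α was quantified by Western blot against β-actin; the concentration range giving ≥50% reduction vs untreated control was reported.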
On the technique in general: Immunoblotting shows a protein as a band on a membrane.

In assay [2] the test system is VEGF. The experiment in a line: Evaluation of VEGF protein secretion level (Human VEGF ELISA) in ARPE-19 cell medium under hypoxic conditions. It is filed as cell-based. The procedure:
ARPE-19 cells (Human retinal pigment epithelial cells, ATCC CRL-2302) were cultured in DMEM/F12 (LM002-08, Welgene) medium containing 10% fetal bovine serum (FBS, 16000-044, Gibco) in an incubator at 37°C with 5% carbon dioxide. When the cells grew sufficiently, they were cultured in experimental culture dishes for protein isolation and medium supernatant acquisition.
Cells were detached from the culture dish using TrypLE™ Express (Gibco). After centrifugation at 1000 rpm for 3 minutes, the supernatant was removed. The cells were counted and seeded into new culture dishes. Normoxic conditions were maintained by culturing the cells in a 37°C incubator with 5% carbon dioxide, and hypoxic conditions were maintained by culturing the cells in a hypoxic incubator with 1% oxygen, 5% carbon dioxide, and 94% nitrogen gas.
The expression of the downstream gene, angiogenesis inducer VEGF, is regulated by HIF-1α, a major transcription factor under hypoxic conditions, and the level of secreted VEGF protein can be quantitatively confirmed through ELISA (Enzyme Linked Immunosorbent Assay, Human VEGF Quantikine ELISA Kit, R&D systems). For this purpose, the following experiment was conducted.
The compounds of each Example were diluted to 0.1 nM, 1 nM, 3 nM, 10 nM, 30 nM, 100 nM, 300 nM, 1 µM and 10 µM in DMEM/F12 medium containing 1% fetal bovine serum, pretreated for 2 hours, and cultured for 24 hours under hypoxic conditions to obtain the cell medium supernatant. The supernatant was centrifuged at 1000 rpm for 3 minutes, and a specific amount was treated with a VEGF ELISA assay kit and the absorbance value was measured at 450 nm to quantitatively confirm the level of VEGF protein (see Table 1 below).
Based on the results of secreted VEGF protein expression levels in cell media treated with compounds diluted at concentrations ranging from 10 µM to 0.1 nM, the concentration range of the compound at which the secreted VEGF protein level was reduced by 50% or less compared to the untreated control group was derived.
On the technique in general: ELISA stands for enzyme-linked immunosorbent assay.

Setting [3] is: mixed hypoxic condition (1% oxygen + CoCl2) for 1 hour, read-out: IC50 HIF-1α Hypoxia (1 hour).
Where [4] appears, read: ARPE-19 cells, pretreated 2 hours, 24 hours hypoxic conditions, secreted VEGF in medium supernatant by ELISA, concentration range reducing VEGF by 50% vs untreated control, read-out: IC50 VEGF.
Where [5] appears, read: values marked * in the table, mixed hypoxic condition (1% oxygen + CoCl2) for 24 hours, read-out: IC50 HIF-1α, Hypoxia(24h).
[6] abbreviates: ARPE-19 cells, pretreated 2 hours, 24 hours hypoxic conditions, ELISA, read-out: concentration at which the secreted VEGF protein level was suppressed to less than 50%.
Where [7] appears, read: Experimental Example 2 (HIF-1α Western blot), read-out: concentration at which the expression level of VEGF was suppressed to less than 50%.

T1 sequence (Q16665 whole entry): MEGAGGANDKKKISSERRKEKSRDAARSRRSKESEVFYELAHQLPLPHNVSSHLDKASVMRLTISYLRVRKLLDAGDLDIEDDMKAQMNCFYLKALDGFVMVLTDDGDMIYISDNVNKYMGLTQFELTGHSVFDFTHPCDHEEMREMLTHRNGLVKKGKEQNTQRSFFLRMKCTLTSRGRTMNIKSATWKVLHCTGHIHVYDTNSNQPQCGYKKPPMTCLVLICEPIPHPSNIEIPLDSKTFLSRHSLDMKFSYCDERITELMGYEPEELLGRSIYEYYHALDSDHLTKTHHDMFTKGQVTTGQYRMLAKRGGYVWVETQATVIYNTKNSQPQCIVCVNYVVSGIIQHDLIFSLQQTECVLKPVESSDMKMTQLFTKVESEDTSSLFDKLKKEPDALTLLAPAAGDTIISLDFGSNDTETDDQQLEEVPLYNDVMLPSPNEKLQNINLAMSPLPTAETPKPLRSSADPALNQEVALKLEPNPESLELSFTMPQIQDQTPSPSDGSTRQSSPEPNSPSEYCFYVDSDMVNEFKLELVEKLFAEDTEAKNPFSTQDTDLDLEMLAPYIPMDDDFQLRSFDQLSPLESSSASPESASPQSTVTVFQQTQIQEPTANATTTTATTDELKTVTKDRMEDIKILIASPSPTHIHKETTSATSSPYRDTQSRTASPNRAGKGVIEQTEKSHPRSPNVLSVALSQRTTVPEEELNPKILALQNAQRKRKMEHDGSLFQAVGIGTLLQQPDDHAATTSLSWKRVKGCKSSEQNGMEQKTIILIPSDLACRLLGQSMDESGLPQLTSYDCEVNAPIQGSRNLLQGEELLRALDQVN

With `COc1ccc(Nc2cc(F)cc(CNC(=O)c3ncnc4nc(C5CCCC5)n(C)c34)c2)cc1` [Example 36, 8-Cyclopentyl-N-(3-fluoro-5-((4-methoxyphenyl)amino)benzyl)-7-methyl-7H-purine-6-carboxamide], the DC50 in assay [1] (setting [3]) is under 100 nM. For the same compound, the IC50 in assay [2] (setting [4]) was 100 to 1000 nM.
Turning to `NC(=O)c1cccc(-n2cc(-c3cc(F)cc(CNC(=O)c4ncnc5nc(C6CCCC6)[nH]c45)c3)cn2)c1` [Example 37, N-(3-(1-(3-carbamoylphenyl)-1H-pyrazol-4-yl)-5-fluorobenzyl)-8-cyclopentyl-7H-purine-6-carboxamide], in assay [1] (setting [5]), the DC50 is under 100 nM. Moreover, the IC50 in assay [2] (setting [6]), in assay [2] (setting [4]) and in assay [2] (setting [7]) was under 100 nM throughout.
On to `O=C(NCc1cc(F)cc(-c2cnsc2)c1)c1ncnc2nc(C3CCCC3)[nH]c12` [Example 38, 8-Cyclopentyl-N-(3-fluoro-5-(isothiazol-4-yl)benzyl)-7H-purine-6-carboxamide], for which the DC50 in assay [1] (setting [3]) is under 100 nM. Besides, the IC50 in assay [2] (setting [4]) lay within 100 to 1000 nM.
`O=C(NCc1cc(F)cc(-c2ccco2)c1)c1ncnc2nc(C3CCCC3)[nH]c12` [Example 39, 8-Cyclopentyl-N-(3-fluoro-5-(furan-2-yl)benzyl)-7H-purine-6-carboxamide]: the DC50 in assay [1] (setting [3]) was 100 to 1000 nM. For the same compound, the IC50 in assay [2] (setting [4]) fell in the range of 100 to 1000 nM.
As for `O=C(NCc1cc(F)cc(-c2ccsc2)c1)c1ncnc2nc(C3CCCC3)[nH]c12` [Example 40, 8-Cyclopentyl-N-(3-fluoro-5-(thiophen-3-yl)benzyl)-7H-purine-6-carboxamide], the DC50 in assay [1] (setting [5]) was under 100 nM. The IC50 in assay [2] (setting [4]) was in the range of 100 to 1000 nM.
For `O=C(NCc1cc(F)cc(Nc2ccc(C(F)(F)F)cc2)c1)c1ncnc2nc(C3CCCC3)[nH]c12` [Example 41, 8-Cyclopentyl-N-(3-fluoro-5-((4-(trifluoromethyl)phenyl)amino)benzyl)-7H-purine-6-carboxamide], the DC50 in assay [1] (setting [3]) was under 100 nM. Also, the IC50 in assay [2] (setting [4]) lay in the range of 100 to 1000 nM.
For `Cc1cc(-n2cc(-c3cc(F)cc(CNC(=O)c4ncnc5nc(C6CCCC6)[nH]c45)c3)cn2)ccn1` [Example 42, 8-Cyclopentyl-N-(3-fluoro-5-(1-(2-methylpyridin-4-yl)-1H-pyrazol-4-yl)benzyl)-7H-purine-6-carboxamide], in assay [1] (setting [5]), the DC50 was under 100 nM. The IC50 in assay [2] (setting [6]), in assay [2] (setting [4]) and in assay [2] (setting [7]) was under 100 nM each time.
Consider `COc1ccc(-n2cc(-c3cc(F)cc(CNC(=O)c4ncnc5nc(C6CCCC6)[nH]c45)c3)cn2)cn1` [Example 43, 8-Cyclopentyl-N-(3-fluoro-5-(1-(6-methoxypyridin-3-yl)-1H-pyrazol-4-yl)benzyl)-7H-purine-6-carboxamide], for which the DC50 in assay [1] (setting [3]) is under 100 nM. For the same compound, in assay [2] (setting [4]), the IC50 fell in the range of 100 to 1000 nM.
In the same order, the values of `O=C(NCc1cc(F)cc(-c2cnn(-c3ccc(C(F)(F)F)nc3)c2)c1)c1ncnc2nc(C3CCCC3)[nH]c12` [Example 44, 8-Cyclopentyl-N-(3-fluoro-5-(1-(6-(trifluoromethyl)pyridin-3-yl)-1H-pyrazol-4-yl)benzyl)-7H-purine-6-carboxamide] are under 100 nM and 100 to 1000 nM.
Turning to `CS(=O)(=O)c1cccc(-n2cc(-c3cc(F)cc(CNC(=O)c4ncnc5nc(C6CCCC6)[nH]c45)c3)cn2)c1` [Example 45, 8-Cyclopentyl-N-(3-fluoro-5-(1-(3-(methylsulfonyl)phenyl)-1H-pyrazol-4-yl)benzyl)-7H-purine-6-carboxamide], the DC50 in assay [1] (setting [5]) was under 100 nM. The IC50 in assay [2] (setting [6]), in assay [2] (setting [4]) and in assay [2] (setting [7]) was under 100 nM throughout.
Turning to `O=C(NCc1cc(F)cc(-c2cnn(-c3cccc(F)c3)c2)c1)c1ncnc2nc(C3CCCC3)[nH]c12` [Example 46, 8-Cyclopentyl-N-(3-fluoro-5-(1-(3-fluorophenyl)-1H-pyrazol-4-yl)benzyl)-7H-purine-6-carboxamide], in assay [1] (setting [5]), the DC50 was under 100 nM. For the same compound, the IC50 in assay [2] (setting [4]) was in the range of 100 to 1000 nM.
For the compound `O=C(NCc1cc(F)cc(-c2cnn(-c3ccc(F)nc3)c2)c1)c1ncnc2nc(C3CCCC3)[nH]c12` [Example 47, 8-Cyclopentyl-N-(3-fluoro-5-(1-(6-fluoropyridin-3-yl)-1H-pyrazol-4-yl)benzyl)-7H-purine-6-carboxamide], the DC50 in assay [1] (setting [5]) is under 100 nM. In addition, the IC50 in assay [2] (setting [6]), in assay [2] (setting [4]) and in assay [2] (setting [7]) was under 100 nM each time.
Regarding `O=C(NCc1cc(F)cc(-c2cnn(-c3ccc(I)cn3)c2)c1)c1ncnc2nc(C3CCCC3)[nH]c12` [Example 48, 8-Cyclopentyl-N-(3-fluoro-5-(1-(5-iodopyridin-2-yl)-1H-pyrazol-4-yl)benzyl)-7H-purine-6-carboxamide], the DC50 in assay [1] (setting [3]) was under 100 nM. The IC50 in assay [2] (setting [4]) lay within 1000 to 10000 nM.
For the compound `O=C(O)c1cccc(-n2cc(-c3cc(F)cc(CNC(=O)c4ncnc5nc(C6CCCC6)[nH]c45)c3)cn2)c1` [Example 49, 3-(4-(3-((8-Cyclopentyl-7H-purine-6-carboxamido)methyl)-5-fluorophenyl)-1H-pyrazol-1-yl)benzoic acid], in assay [1] (setting [3]), the DC50 is under 100 nM. Moreover, the IC50 in assay [2] (setting [4]) fell in the range of 1000 to 10000 nM.
In the case of `N#Cc1ccc(-n2cc(-c3cc(F)cc(CNC(=O)c4ncnc5nc(C6CCCC6)[nH]c45)c3)cn2)cc1` [Example 50, N-(3-(1-(4-cyanophenyl)-1H-pyrazol-4-yl)-5-fluorobenzyl)-8-cyclopentyl-7H-purine-6-carboxamide], the DC50 in assay [1] (setting [5]) was under 100 nM. In addition, the IC50 in assay [2] (setting [6]), in assay [2] (setting [4]) and in assay [2] (setting [7]) was under 100 nM in each case.
As to `O=C(NCc1cc(F)cc(-c2ccn(-c3ccc(F)cc3)n2)c1)c1ncnc2nc(C3CCCC3)[nH]c12` [Example 51, 8-Cyclopentyl-N-(3-fluoro-5-(1-(4-fluorophenyl)-1H-pyrazol-3-yl)benzyl)-7H-purine-6-carboxamide], the DC50 in assay [1] (setting [3]) was under 100 nM. In addition, the IC50 in assay [2] (setting [4]) was 100 to 1000 nM.
Regarding `O=C(NCc1cc(F)cc(-c2ccn(-c3ccc(F)cc3)c2)c1)c1ncnc2nc(C3CCCC3)[nH]c12` [Example 52, 8-Cyclopentyl-N-(3-fluoro-5-(1-(4-fluorophenyl)-1H-pyrrol-3-yl)benzyl)-7H-purine-6-carboxamide], the DC50 in assay [1] (setting [3]) is under 100 nM. In addition, the IC50 in assay [2] (setting [4]) lay within 100 to 1000 nM.
Turning to `NC(=O)c1ccc(-n2cc(-c3cc(F)cc(CNC(=O)c4ncnc5nc(C6CCCC6)[nH]c45)c3)cn2)cc1` [Example 53, N-(3-(1-(4-carbamoylphenyl)-1H-pyrazol-4-yl)-5-fluorobenzyl)-8-cyclopentyl-7H-purine-6-carboxamide], in assay [1] (setting [5]), the DC50 was under 100 nM. The IC50 in assay [2] (setting [4]) fell in the range of 100 to 1000 nM.
Take `O=C(O)c1ccc(-n2cc(-c3cc(F)cc(CNC(=O)c4ncnc5nc(C6CCCC6)[nH]c45)c3)cn2)cc1` [Example 54, 4-(4-(3-((8-Cyclopentyl-7H-purine-6-carboxamido)methyl)-5-fluorophenyl)-1H-pyrazol-1-yl)benzoic acid]: the DC50 in assay [1] (setting [3]) was under 100 nM. For the same compound, the IC50 in assay [2] (setting [4]) fell in the range of 100 to 1000 nM.
As to `O=C(NCc1cc(-c2cnn(-c3ccc(F)cc3)c2)ccc1F)c1ncnc2nc(C3CCCC3)[nH]c12` [Example 56, 8-Cyclopentyl-N-(2-fluoro-5-(1-(4-fluorophenyl)-1H-pyrazol-4-yl)benzyl)-7H-purine-6-carboxamide], the DC50 in assay [1] (setting [5]) was under 100 nM. Besides, the IC50 in assay [2] (setting [4]) is 100 to 1000 nM.
As to `O=C(NCc1cccc(-c2cnn(-c3ccc(F)cc3)c2)c1)c1ncnc2nc(C3CCCC3)[nH]c12` [Example 57, 8-Cyclopentyl-N-(3-(1-(4-fluorophenyl)-1H-pyrazol-4-yl)benzyl)-7H-purine-6-carboxamide], in assay [1] (setting [5]), the DC50 was under 100 nM. In addition, in assay [2] (setting [4]), the IC50 is 100 to 1000 nM.
In the same order, the values of `O=C(NCc1cc(F)cc(-c2cnn(-c3ccc(Cl)cc3)c2)c1)c1ncnc2nc(C3CCCC3)[nH]c12` [Example 58, N-(3-(1-(4-chlorophenyl)-1H-pyrazol-4-yl)-5-fluorobenzyl)-8-cyclopentyl-7H-purine-6-carboxamide] are under 100 nM and 100 to 1000 nM.

These data come from patent EP4567035A1, “NOVEL COMPOUND AS HYPOXIA-INDUCIBLE FACTOR 1(HIF-1) INHIBITOR OR VASCULAR ENDOTHELIAL GROWTH FACTOR (VEGF) INHIBITOR, AND PHARMACEUTICAL COMPOSITION COMPRISING SAME” (Nextgen Bioscience Co., Ltd., priority 2022, dated 2024).
